The target of assay [1] is T1, soluble guanylate cyclase (sGC) (Homo sapiens, UniProt Q02108+Q02153).
T1 construct: endogenously expressing soluble guanylate cyclase (sGC); endogenous in cells; host or cells: HEK293
T1 sequence (Q02153 1-619): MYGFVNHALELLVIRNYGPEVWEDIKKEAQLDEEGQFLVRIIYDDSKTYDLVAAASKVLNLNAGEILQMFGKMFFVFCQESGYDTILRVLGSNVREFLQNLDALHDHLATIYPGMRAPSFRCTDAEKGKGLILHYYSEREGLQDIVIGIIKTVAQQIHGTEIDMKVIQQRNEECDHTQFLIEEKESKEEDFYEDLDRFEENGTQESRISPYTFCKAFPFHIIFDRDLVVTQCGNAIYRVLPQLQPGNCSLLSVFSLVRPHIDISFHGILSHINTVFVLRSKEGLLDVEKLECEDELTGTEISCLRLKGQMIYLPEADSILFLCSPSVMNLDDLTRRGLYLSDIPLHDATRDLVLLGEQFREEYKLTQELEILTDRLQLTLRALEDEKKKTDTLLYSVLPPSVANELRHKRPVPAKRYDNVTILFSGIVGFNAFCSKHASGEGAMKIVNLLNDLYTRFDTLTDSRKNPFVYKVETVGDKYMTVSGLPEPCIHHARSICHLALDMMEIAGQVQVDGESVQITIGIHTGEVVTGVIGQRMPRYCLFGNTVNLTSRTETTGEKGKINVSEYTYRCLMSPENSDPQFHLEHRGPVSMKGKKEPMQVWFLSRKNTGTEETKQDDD
T1 sequence (Q02108 1-690): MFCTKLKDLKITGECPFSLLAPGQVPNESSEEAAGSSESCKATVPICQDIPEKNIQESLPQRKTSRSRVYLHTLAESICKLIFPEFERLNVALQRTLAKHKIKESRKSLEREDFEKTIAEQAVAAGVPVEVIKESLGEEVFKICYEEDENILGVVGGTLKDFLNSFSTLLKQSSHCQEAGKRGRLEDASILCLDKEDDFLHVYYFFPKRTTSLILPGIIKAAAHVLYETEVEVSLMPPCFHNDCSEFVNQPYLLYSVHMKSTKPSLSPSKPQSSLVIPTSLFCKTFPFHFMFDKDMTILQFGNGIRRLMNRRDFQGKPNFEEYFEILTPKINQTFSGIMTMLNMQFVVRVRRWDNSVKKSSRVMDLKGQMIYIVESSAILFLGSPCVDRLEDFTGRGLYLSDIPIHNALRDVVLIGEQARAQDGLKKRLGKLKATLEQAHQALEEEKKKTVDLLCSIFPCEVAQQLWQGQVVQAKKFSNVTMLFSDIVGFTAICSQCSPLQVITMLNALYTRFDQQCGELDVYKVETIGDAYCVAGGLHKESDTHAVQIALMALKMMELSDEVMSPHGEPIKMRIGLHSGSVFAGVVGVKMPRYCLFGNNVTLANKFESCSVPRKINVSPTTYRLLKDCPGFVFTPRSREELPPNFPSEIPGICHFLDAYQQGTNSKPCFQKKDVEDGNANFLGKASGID
Kind of assay: sGC-HEK-cGMP assay, LC/MS detection, with SNP incubation (Example 2A). The assay is classed as cell-based. The settings on record: HEK293 cells, in the presence of 10 μM SNP. As for the experimental part:
Human embryonic kidney cells (HEK293), endogenously expressing soluble guanylate cyclase (sGC), were used to evaluate the activity of test compounds. Compounds stimulating the sGC receptor should cause an increase in the intracellular concentration of cGMP. HEK 293 cells were seeded in Dulbecco's Modification of Eagle's Medium supplemented with fetal bovine serum (10% final) and L-glutamine (2 mM final) in a 200 μL volume at a density of 1×10^5 cells/well in a poly-D-lysine coated 96 well flat bottom plate and grown overnight at 37° C. Medium was aspirated and cells were washed with 1× Hank's Buffered Saline Salt Solution (200 μL). Cells were then incubated for 15 minutes at 37° C. with 0.5 mM 3-isobutyl-1-methylxanthine (200 μL). Test article and sodium nitroprusside were then added to the assay mixture (2 μL each) and incubated at 37° C. for 10 minutes. After the 10 minute incubation, the assay mixture was aspirated and 0.1M HCl (200 μL) was added to the cells. The plate was incubated at 4° C. for 30 minutes in the 0.1M HCl to stop the reaction and lysed the cells. The plates were then centrifuged at 1,200 g for 5 minutes at room temperature. Supernatants were collected and transferred to a new flat bottom 96 well plate for analysis. Vehicle controls were carried out using DMSO (1%). A known sGC stimulator, BAY 41-2272, was used as the positive control. Samples were diluted with an equal volume of 1 M Ammonium Acetate (pH 7) to neutralize samples for better chromatography. A 2× cGMP standard curve was prepared in 0.1 M HCl and then diluted with an equal volume of 1 M Ammonium Acetate, with the following final concentrations in nM: 1024, 512, 256, 128, 64, 32, 16, 8, 4, 2, 1. cGMP concentrations were determined from each sample using the LC/MS conditions (Table 2 below) and calculated standard curve. EC50 values were calculated from concentration-response curves generated with GraphPad Prism Software.

In assay [2] the test system is lambs with acute pulmonary hypertension. The settings on record: cited from earlier work; for effect on mean arterial pressure / pulmonary vasodilation / transpulmonary cGMP release / systemic arterial oxygenation: inhaled microparticles, awake lambs; for effect on mean arterial pressure / pulmonary vasodilation / transpulmonary cGMP release: U-46619 infusion.
Setting [3] is: top of concentration-response curve not fitted to 100%, read-out: sGC_HEK_LCMS uEC50 (nM) Binned (unconstrained).
The mark [4] stands for this setting: constrained fit, read-out: sGC_HEK_LCMS cEC50 (nM) Binned (constrained).

Read-outs that look alike come from different tables or passages of the source.

This is an account of results in patent publication US20170298055A1, “sGC STIMULATORS” (IRONWOOD PHARMACEUTICALS, INC., priority 2014, published 2017).

For the compound `CS(=O)(=O)N1CCCC(Oc2nc(-c3cc(-c4ccon4)n(Cc4ccccc4F)n3)ncc2F)C1` (stereo not drawn) [Compound I-21], the EC50 in assay [1] (setting [3]) was in the range of 1000 to 5000 nM. `COC(=O)COc1nc(-c2cc(-c3ccon3)n(Cc3ccccc3F)n2)ncc1F` [Compound I-7]: in assay [1] (setting [3]), the EC50 lay in the range of 1000 to 5000 nM.

With `COC(=O)c1ccccc1C#Cc1nc(-c2cc(-c3ccon3)n(Cc3ccccc3F)n2)ncc1F` [Compound I-23], the EC50 in assay [1] (setting [3]) lay in the range of 1000 to 5000 nM.

In the case of `Nc1nc(-c2nn(Cc3ccccc3F)c3ncccc23)nc(N)c1N1CCOCC1` [BAY 41-8543], the “pulmonary vasodilation induced by iNO after inhaling microparticles” value in assay [2] (combination with inhaled nitric oxide) was “augmented”. Also, in assay [2], the “effect on mean arterial pressure” value is reported as “without significant effect on mean arterial pressure”, the pulmonary vasodilation entry is on record as “dose dependent pulmonary vasodilation”, the “transpulmonary cGMP release” value was “increased transpulmonary cGMP release” and the systemic arterial oxygenation result is “increased systemic arterial oxygenation”. As for `O=C(COc1nc(-c2cc(-c3ccon3)n(Cc3ccccc3F)n2)ncc1F)N1CCOCC1` [Compound I-11], the EC50 in assay [1] (setting [4]) lay within 1000 to 5000 nM. Regarding `COC(=O)C1(Oc2nc(-c3cc(-c4ccon4)n(Cc4ccccc4F)n3)ncc2F)CC1` [Compound I-8], in assay [1] (setting [3]), the EC50 lay within 1000 to 5000 nM.

As for `O=C1O/C(=C\c2nc(-c3cc(-c4ccon4)n(Cc4ccccc4F)n3)ncc2F)c2ccccc21` [Compound I-26], the EC50 in assay [1] (setting [3]) is 1000 to 5000 nM. `O=C(O)CCCCN(CCc1ccccc1OCc1ccc(CCc2ccccc2)cc1)Cc1ccc(C(=O)O)cc1` [BAY 58-2667]: in assay [2] (after intravenous ODQ), the “pulmonary vasodilation and transpulmonary cGMP release after ODQ treatment” value is listed as “greatly enhanced”. Also, in assay [2], the “effect on mean arterial pressure” value is recorded as “without significant effect on mean arterial pressure”, the pulmonary vasodilation entry was “dose dependent pulmonary vasodilation”, the “transpulmonary cGMP release” value is “increased transpulmonary cGMP release” and the systemic arterial oxygenation entry is listed as “increased systemic arterial oxygenation”. On to `Nc1nc(-c2nn(Cc3ccccc3F)c3ncccc23)ncc1C1CC1` [BAY 41-2272], for which, in assay [2], the “effect on mean arterial pressure” value was “without significant effect on mean arterial pressure”, the pulmonary vasodilation result is given as “dose dependent pulmonary vasodilation” and the “transpulmonary cGMP release” value is given as “increased transpulmonary cGMP release”. Turning to `CC(C)(C)OC(=O)N1CCCC1COc1nc(-c2cc(-c3ccon3)n(Cc3ccccc3F)n2)ncc1F` (stereo not drawn) [Compound I-4], the EC50 in assay [1] (setting [3]) lay within 1000 to 5000 nM.

Regarding `Fc1ccccc1Cn1nc(-c2ncc(F)c(OC3CCOC3)n2)cc1-c1ccon1` (stereo not drawn) [Compound I-15], the EC50 in assay [1] (setting [3]) was in the range of 100 to 1000 nM. Turning to `Fc1ccccc1Cn1nc(-c2ncc(F)c(OCC(F)(F)c3ccccn3)n2)cc1-c1ccon1` [Compound I-17], the EC50 in assay [1] (setting [3]) lay within 100 to 1000 nM. For `Fc1ccccc1Cn1nc(-c2ncc(F)c(OC3CNC3)n2)cc1-c1ccon1` [Compound I-14], the EC50 in assay [1] (setting [3]) is 1000 to 5000 nM. Turning to `Fc1ccccc1Cn1nc(-c2ncc(F)c(OC3CCNC3)n2)cc1-c1ccon1` (stereo not drawn) [Compound I-5], the EC50 in assay [1] (setting [4]) is 1000 to 5000 nM. For the compound `O=C(O)c1ccccc1C(=O)Cc1nc(-c2cc(-c3ccon3)n(Cc3ccccc3F)n2)ncc1F` [Compound I-27], the EC50 in assay [1] (setting [3]) was in the range of 1000 to 5000 nM. Consider `CS(=O)(=O)CCCOc1nc(-c2cc(-c3ccon3)n(Cc3ccccc3F)n2)ncc1F` [Compound I-18], for which, in assay [1] (setting [4]), the EC50 was in the range of 1000 to 5000 nM. Consider `Fc1ccccc1Cn1nc(-c2ncc(F)c(OC3CCNCC3)n2)cc1-c1ccon1` [Compound I-13], for which the EC50 in assay [1] (setting [3]) is ≥ 5000 nM.
